This is an account of results in patent US11746103B2, “ALK-5 inhibitors and uses thereof” (Sumitomo Pharma Oncology, Inc., priority 2020, dated 2023).

The target in one assay is ALK-5 (Homo sapiens (Human), UniProt P36897). In words: LanthaScreen Eu Kinase Binding Assay, ALK-5. As to conditions: for IC50: read-out: Kinase Inhibition: ALK5 IC50. The procedure:
Activity determinations and selectivity were conducted by Thermo Fisher Scientific “SelectScreen™ Biochemical Kinase Profiling Service” using their “LanthaScreen™ Eu Kinase Binding Assay Screening” (www.thermofisher.com/selectscreen). Binding of an Alexa Fluor™ conjugate or “tracer” to a kinase is detected by addition of a Eu-labeled anti-tag antibody. Binding of the tracer and antibody to a kinase results in a high degree of FRET, whereas displacement of the tracer with a kinase inhibitor results in a loss of FRET. This assay is carried out by mixing the compound tested with the reagents and reading, no development step is required. Life Technologies' Kinase Tracers are based on ATP-competitive kinase inhibitors, making them suitable for detection of any compounds that bind to the ATP site. Inhibitors that bind the ATP site include both Type I kinase inhibitors, which bind solely to the ATP site, and Type II inhibitors (e.g., Gleevec®/Imatinib, Sorafenib, BIRB-796), which bind to both the ATP site and a second site often referred to as the allosteric site. […] For 10 point titrations, 3-fold serial dilutions are conducted from the starting concentration (see Table 2 below). [table] All Kinase/Antibody Mixtures are diluted to a 2× working concentration in the specified kinase buffer. The 4× AlexaFluor labeled Tracer is prepared in Kinase Buffer. Bar-coded, low volume, white 384-well plate (Greiner Cat. #784207) […] 2. 3.84 μL—Kinase Buffer […] 4. 4.0 μL—4× Tracer 5. 30-second plate shake 6. 60-minute incubation at room temperature 7. […] The LanthaScreen Eu Kinase Binding Assay data is analyzed using the equations in Table 3 for each set of data points. [table] Data generated were plotted using the graphing software XLfit from IDBS. The dose response curve is curve fit to model number 205.
(In general: In TR-FRET formats the signal depends on donor and acceptor labels being close together.)

Assay [1] has as its system TGF-beta induced SMAD signaling. In words: RDSR (RD SMAD reporter) Cellular Reporter Assay. As to conditions: Homo sapiens; 200 pg/ml rhTGF-beta1, 24 h; read-out: RD-SMAD reporter activity. It is filed as cell-based. From the text:
TGF-β signaling is triggered when the activated TGF-β homodimer binds to the TGF-β receptor 2, which in turn leads to the recruitment and phosphorylation of TGF-β receptor 1 (ALK5). Activated TGF-β receptor 1 phosphorylates the signal transduction molecules SMAD2 and SMAD3. These bind to common mediator SMAD4 and translocate to the nucleus where they bind to short conserved DNA sequences called the SMAD binding element and induce the transcription of various target genes. […] Certain example compounds were also or alternatively assayed using the RDSR Cellular Reporter Assay. Overview and Design: The RD SMAD reporter (RDSR) cell line was generated by stabily integrating the SMAD cellular reporter plasmid (Promega, pGL4.48[luc2P/SBE/Hygro]) into the human rhabdomyosarcoma cell line RD (ATCC, CCL-136). Once SMAD signaling is triggered, with, for example, the addition of TGF-β 1, receptor activated SMADs bind the SMAD binding elements (SBEs) leading to the expression of intracellular luciferase. To determine the potency of compounds at inhibiting TGF-beta induced SMAD signaling, the RDSR reporter system was utilized. The rhabdomyosarcoma line RD (ATCC, CCL-136) was transfected with a SMAD reporter vector (Promega, E3671) and a polyclonal stable cell line was selected using hygromycin B. The transfected vector contains three copies of a SMAD-binding element (SBE) that drive transcription of the luciferase reporter gene luc2P (Photinus pyralis). luc2P is a synthetically-derived luciferase sequence with humanized codon optimization that is designed for high expression and reduced anomalous transcription. The luc2P gene contains hPEST, a protein destabilization sequence, which allows luc2P protein levels to respond more quickly than those of luc2 to induction of transcription. The intracellular luciferase is quantified by the addition of equal volume (100 μl) of ONE-GLO substrate (Promega, E6120) and read within ten minutes on the Envision plate reader. The stable RDSR cell line was tested by evaluating the response to human TGF-β1 (R&D Systems, 7754-BH-005) as well as human myostatin (R&D Systems, 788-G8-010/CF) in a concentration dependent manner after twenty-four hours of stimulation. […] For compound evaluation, the tool drugs Galunisertib and Vactosertib were included as positive controls. The tool drugs and the compounds of the invention being tested were all incubated with cells for one hour at 37° C. before stimulation with 200 pg/ml rhTGF-beta1 for twenty-four hours. The activity of the reporter was determined with the addition of ONE-GLO (Promega) substrate and luminescence counts collected on the Envision plate reader (Perkin Elmer). […] The activity of compounds of the invention as determined using this method are reported in the third column of Table 1, below.
In general terms: A reporter such as luciferase makes a cellular process visible.

SMILES strings stand for the structures. Some results are limits rather than exact numbers.

Sequence of ALK-5 (P36897 34-503): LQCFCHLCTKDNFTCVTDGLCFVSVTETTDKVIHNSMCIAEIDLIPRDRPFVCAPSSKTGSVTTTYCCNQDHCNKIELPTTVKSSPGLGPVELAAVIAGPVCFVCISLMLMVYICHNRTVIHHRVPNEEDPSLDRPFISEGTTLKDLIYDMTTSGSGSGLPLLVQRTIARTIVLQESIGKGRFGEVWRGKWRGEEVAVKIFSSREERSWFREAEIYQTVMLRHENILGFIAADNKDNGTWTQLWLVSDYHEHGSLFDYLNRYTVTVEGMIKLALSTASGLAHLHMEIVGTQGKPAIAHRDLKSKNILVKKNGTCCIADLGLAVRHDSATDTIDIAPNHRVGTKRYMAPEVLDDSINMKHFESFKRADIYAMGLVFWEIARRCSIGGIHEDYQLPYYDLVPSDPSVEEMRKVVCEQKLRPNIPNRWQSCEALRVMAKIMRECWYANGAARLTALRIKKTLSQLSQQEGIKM

Take `Cc1cccc2c(Nc3ccnc(Nc4ccc(N5CCN(C)CC5)nc4)n3)cnnc12` [EX-23, N4-(8-methylcinnolin-4-yl)-N2-(6-(4-methylpiperazin-1-yl)pyridin-3-yl)pyrimidine-2,4-diamine]: at ALK-5, the “Kinase Selectivity: ALK2 IC50/ ALK5 IC50” value is “(++) (10<ALK2/ALK5<100=[++])”. Also, the IC50 is less than 10 nM on ALK-5 and less than 100 nM in assay [1].

On to `Cc1c(F)ccc2c(Nc3ccnc(Nc4ccc(N5CCOCC5)cc4)n3)cnnc12` [EX-41, N4-(7-fluoro-8-methylcinnolin-4-yl)-N2-(4-morpholinophenyl)pyrimidine-2,4-diamine], for which, at ALK-5, the “Kinase Selectivity: ALK2 IC50/ ALK5 IC50” value was “(++) (10<ALK2/ALK5<100=[++])” and the IC50 is less than 10 nM. In addition, the IC50 in assay [1] is less than 100 nM.

As to `Cc1cccc2c(Nc3ccnc(Nc4cc(CN5CCNCC5)ccc4F)n3)cnnc12` [EX-03, N2-(2-fluoro-5-(piperazin-1-yl-methyl)phenyl)-N4-(8-methyl-cinnolin-4-yl)-pyrimidine-2,4-diamine], on ALK-5, the “Kinase Selectivity: ALK2 IC50/ ALK5 IC50” value is “(++) (10<ALK2/ALK5<100=[++])” and the IC50 is less than 10 nM. Besides, the IC50 in assay [1] is 100 to 1000 nM.

On to `Cc1cccc2c(Nc3ccnc(Nc4ccc(N5CCNCC5)cc4)n3)cnnc12` [EX-48, N4-(8-methylcinnolin-4-yl)-N2-(4-(piperazin-1-yl)phenyl)pyrimidine-2,4-diamine], for which, on ALK-5, the “Kinase Selectivity: ALK2 IC50/ ALK5 IC50” value is “(++) (10<ALK2/ALK5<100=[++])” and the IC50 was less than 10 nM. Further, the IC50 in assay [1] was less than 100 nM.

In the case of `Cc1cccc2c(Nc3ccnc(Nc4ccc(N5CC6CCC(C5)N6C)cc4)n3)cnnc12` [EX-27, N2-(4-(8-methyl-3,8-diazabicyclo[3.2.1]octan-3-yl)phenyl)-N4-(8-methylcinnolin-4-yl)pyrimidine-2,4-diamine], on ALK-5, the “Kinase Selectivity: ALK2 IC50/ ALK5 IC50” value is “(++) (10<ALK2/ALK5<100=[++])” and the IC50 was less than 10 nM. Moreover, the IC50 in assay [1] is less than 100 nM.

For the compound `Cc1c(F)ccc2c(Nc3ccnc(Nc4ccc(N5CCN(C)CC5)cc4)n3)cnnc12` [EX-01, N4-(7-fluoro-8-methylcinnolin-4-yl)-N2-(4-(4-methyl-piperazin-1-yl)-phenyl)-pyrimidine-2,4-diamine], at ALK-5, the “Kinase Selectivity: ALK2 IC50/ ALK5 IC50” value is “(++) (10<ALK2/ALK5<100=[++])”. For the same compound, the IC50 on ALK-5 was less than 10 nM; in assay [1], less than 100 nM.

Turning to `Cc1cccc2c(Nc3ccnc(Nc4cccc(S(N)(=O)=O)c4)n3)cnnc12` [EX-35, 3-((4-((8-methylcinnolin-4-yl)amino)-pyrimidin-2-yl)amino)benzenesulfonamide], at ALK-5, the “Kinase Selectivity: ALK2 IC50/ ALK5 IC50” value is “(+) (≤10=[+])” and the IC50 was less than 10 nM. For the same compound, the IC50 in assay [1] was less than 100 nM.

Take `Cc1cccc2c(Nc3ccnc(Nc4ccc(N5CCN(C)CC5)c(F)c4)n3)cnnc12` [EX-53, N2-(3-fluoro-4-(4-methylpiperazin-1-yl)phenyl)-N4-(8-methylcinnolin-4-yl)pyrimidine-2,4-diamine]: on ALK-5, the “Kinase Selectivity: ALK2 IC50/ ALK5 IC50” value is “(++) (10<ALK2/ALK5<100=[++])”. The results for the IC50 (on ALK-5; in assay [1]) were less than 10 nM and less than 100 nM, respectively.

`Cc1cccc2c(Nc3ccnc(Nc4ccc(CN5CCN(C)CC5)c(C(F)(F)F)c4)n3)cnnc12` [EX-28, N4-(8-methylcinnolin-4-yl)-N2-(4-((4-methylpiperazin-1-yl)methyl)-3-(trifluoromethyl)phenyl)pyrimidine-2,4-diamine]: at ALK-5, the “Kinase Selectivity: ALK2 IC50/ ALK5 IC50” value is “(++) (10<ALK2/ALK5<100=[++])” and the IC50 was less than 10 nM. For the same compound, the IC50 in assay [1] was less than 100 nM.

Take `Cc1cccc2c(Nc3ccnc(Nc4cccc(C5CCNCC5)c4)n3)cnnc12` [EX-36, N4-(8-methylcinnolin-4-yl)-N2-(3-(piperidin-4-yl)phenyl)pyrimidine-2,4-diamine]: at ALK-5, the “Kinase Selectivity: ALK2 IC50/ ALK5 IC50” value was “(+) (≤10=[+])” and the IC50 is less than 10 nM. For the same compound, the IC50 in assay [1] was less than 100 nM.

Regarding `Cc1cccc2c(Nc3ccnc(Nc4ccc(Cl)cc4)n3)cnnc12` [EX-29, N2-(4-chlorophenyl)-N4-(8-methylcinnolin-4-yl)pyrimidine-2,4-diamine], at ALK-5, the “Kinase Selectivity: ALK2 IC50/ ALK5 IC50” value is “(++) (10<ALK2/ALK5<100=[++])” and the IC50 is less than 10 nM. Also, the IC50 in assay [1] was less than 100 nM.

As for `Cc1cc(F)cc2c(Nc3ccnc(Nc4ccc(N5CCN(C)CC5)cc4)n3)cnnc12` [EX-07, N4-(6-fluoro-8-methylcinnolin-4-yl)-N2-(4-(4-methylpiperazin-1-yl)phenyl)pyrimidine-2,4-diamine], the “Kinase Selectivity: ALK2 IC50/ ALK5 IC50” value on ALK-5 was “(++) (10<ALK2/ALK5<100=[++])”. Besides, the IC50 at ALK-5 is less than 10 nM; in assay [1] it was less than 100 nM.

Regarding `Cc1nnc2c(C)cccc2c1Nc1ccnc(Nc2cccc(N3CCOCC3)c2)n1` [EX-51, N4-(3,8-dimethylcinnolin-4-yl)-N2-(3-morpholinophenyl)pyrimidine-2,4-diamine], the “Kinase Selectivity: ALK2 IC50/ ALK5 IC50” value at ALK-5 was “(+) (≤10=[+])”. Besides, the IC50 on ALK-5 is less than 10 nM; in assay [1] it was 100 to 1000 nM.

Regarding `Cc1cccc2c(Nc3ccnc(Nc4cc(F)cc(N5CCOCC5)c4)n3)cnnc12` [EX-44, N2-(3-fluoro-5-morpholinophenyl)-N4-(8-methylcinnolin-4-yl)pyrimidine-2,4-diamine], at ALK-5, the “Kinase Selectivity: ALK2 IC50/ ALK5 IC50” value is “(++) (10<ALK2/ALK5<100=[++])”. Moreover, the IC50 on ALK-5 is less than 10 nM; in assay [1], less than 100 nM.

As to `Cc1ccc(F)c2c(Nc3ccnc(Nc4ccc(N5CCN(C)CC5)cc4)n3)cnnc12` [EX-24, N4-(5-fluoro-8-methylcinnolin-4-yl)-N2-(4-(4-methylpiperazin-1-yl)phenyl)pyrimidine-2,4-diamine], at ALK-5, the “Kinase Selectivity: ALK2 IC50/ ALK5 IC50” value was “(++) (10<ALK2/ALK5<100=[++])” and the IC50 is less than 10 nM. The IC50 in assay [1] was less than 100 nM.

On to `Cc1cccc2c(Nc3ccnc(Nc4ccc(C5CCCCC5)cc4)n3)cnnc12` [EX-56, N2-(4-cyclohexylphenyl)-N4-(8-methylcinnolin-4-yl)pyrimidine-2,4-diamine], for which, on ALK-5, the “Kinase Selectivity: ALK2 IC50/ ALK5 IC50” value was “(+++) (100≤ALK2/ALK5=[+++])” and the IC50 was less than 10 nM. In addition, the IC50 in assay [1] was in the range of 100 to 1000 nM.

Regarding `Cc1cccc2c(Nc3ccnc(Nc4cc(N5CCOCC5)cc(C(F)(F)F)c4)n3)cnnc12` [EX-39, N4-(8-methylcinnolin-4-yl)-N2-(3-morpholino-5-(trifluoromethyl)phenyl)pyrimidine-2,4-diamine], on ALK-5, the “Kinase Selectivity: ALK2 IC50/ ALK5 IC50” value is “(+) (≤10=[+])” and the IC50 was less than 10 nM. Further, the IC50 in assay [1] lay within 100 to 1000 nM.

As to `Cc1c(F)ccc2c(Nc3ccnc(Nc4cccc(N5CCOCC5)c4)n3)cnnc12` [EX-40, N4-(7-fluoro-8-methylcinnolin-4-yl)-N2-(3-morpholinophenyl)pyrimidine-2,4-diamine], at ALK-5, the “Kinase Selectivity: ALK2 IC50/ ALK5 IC50” value was “(++) (10<ALK2/ALK5<100=[++])” and the IC50 is less than 10 nM. In addition, in assay [1], the IC50 was less than 100 nM.

`Cc1cccc2c(Nc3ccnc(Nc4ccc(CN5CCNCC5)cc4)n3)cnnc12` [EX-20, N4-(8-methyl-cinnolin-4-yl)-N2-(4-(piperazin-1-yl-methyl)phenyl)pyrimidine-2,4-diamine]: on ALK-5, the “Kinase Selectivity: ALK2 IC50/ ALK5 IC50” value is “(++) (10<ALK2/ALK5<100=[++])” and the IC50 is less than 10 nM. Also, in assay [1], the IC50 is less than 100 nM.
